Assay results as given in PubChem BioAssay (NCI).
“And” between values parts separate entries of the source, which are not always exact repeats. Equal entries are not always repeated.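 48-hour exposure; five concentrations; linearly interpolated endpoints. GI50 = concentration required for 50% inhibition of growth. TGI: concentration producing complete growth inhibition.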

Assays:
Experiment in all cases: DTP human tumour cell line panel, 48 h
[1] = system: CCRF-CEM leukemia
[2] = system: HOP-62 NSCLC
[3] = system: NCI-H23 lung
[4] = system: NCI-H460 lung
[5] = system: OVCAR-3 ovarian
[6] = system: SK-MEL-28 melanoma
[7] = system: SNB-19 CNS
[8] = system: SNB-75 CNS
[9] = system: SW-620 colon

C(/C=C/N1CCCC1)=C\c1nc(N2CCCC2)c2ccccc2n1
TGI [1]: 50.1 µM | TGI [2]: 35.2 µM | TGI [3]: 32.9 µM | TGI [4]: 33.6 µM | TGI [5]: 29.7 µM | TGI [6]: 38.7 µM | TGI [7]: 36.3 µM | TGI [8]: 31.6 µM | TGI [9]: 29.8 µM

O=C(NOC(=O)c1ccc([N+](=O)[O-])cc1)c1ccc(Cl)cc1
TGI [1]: > 100 µM | TGI [2]: > 100 µM | TGI [3]: > 100 µM | TGI [4]: > 100 µM | TGI [6]: > 100 µM | TGI [7]: > 100 µM | TGI [8]: 54.6 µM | TGI [9]: > 100 µM

Cc1cc(N(CCC#N)CCC#N)ccc1/C=C/C(=O)Nc1ccccc1Cl
TGI [1]: > 100 µM | TGI [2]: > 100 µM | TGI [3]: > 100 µM | TGI [4]: > 100 µM | TGI [5]: > 100 µM | TGI [6]: > 100 µM | TGI [7]: > 100 µM | TGI [8]: > 100 µM | TGI [9]: > 100 µM

Cc1cc2c(-c3nc4ccccn4c3NC34CC5CC(CC(C5)C3)C4)c(O)c(O)cc2c(O)c1-c1c(C)cc2c(-c3nc4ccccn4c3NC34CC5CC(CC(C5)C3)C4)c(O)c(O)cc2c1O
GI50 [1]: 0.115 µM | TGI [1]: > 25 µM | GI50 [2]: 724 nM | TGI [2]: > 25 µM | GI50 [3]: 0.137 µM | TGI [3]: 3.09 µM | GI50 [4]: 0.0903 µM | TGI [4]: 2.1 µM | GI50 [5]: 0.617 µM | TGI [5]: 8.3 µM | GI50 [6]: 0.459 µM | TGI [6]: 4.69 µM | GI50 [7]: 0.214 µM | TGI [7]: 3.99 µM | GI50 [8]: 1.04 µM | TGI [8]: 19.1 µM | GI50 [9]: 0.881 µM | TGI [9]: > 25 µM

CC1(C)Oc2ccccc2N2O[C@@H]3C(=O)N(c4ccccc4)C(=O)[C@@H]3C21c1ccccc1 (stereo not given in full)
TGI [1]: > 100 µM | TGI [2]: 31.5 µM | TGI [3]: > 100 µM | TGI [4]: > 100 µM | TGI [5]: 47 µM | TGI [6]: 85 µM | TGI [7]: 38.1 µM | TGI [8]: 35.3 µM | TGI [9]: > 100 µM

O=c1ncccn1C1OC(CO)C(O)C1F (stereo not given)
GI50 [1]: > 100 µM | TGI [1]: > 100 µM | TGI [2]: > 100 µM | TGI [3]: > 100 µM | GI50 [4]: > 100 µM | TGI [4]: > 100 µM | TGI [5]: > 100 µM | TGI [6]: > 100 µM | TGI [7]: > 100 µM | TGI [8]: > 100 µM | GI50 [9]: > 100 µM | TGI [9]: > 100 µM

COc1cc(-c2nn3c(=O)n(-c4ccc(Cl)cc4)c(=O)nc3s2)cc(OC)c1OC
GI50 [1]: > 5 µM | TGI [1]: > 100 µM | TGI [2]: > 71.9 µM | GI50 [3]: > 50 µM | TGI [3]: > 100 µM | GI50 [4]: > 50 µM | TGI [4]: > 100 µM | TGI [5]: > 100 µM | GI50 [6]: > 50 µM | TGI [6]: > 100 µM | GI50 [7]: 37.4 µM | TGI [7]: 50 µM and 83.8 µM | GI50 [8]: 17.2 µM | TGI [8]: 43.1 µM and 21.1 µM | GI50 [9]: > 50 µM | TGI [9]: > 100 µM

CN1C(=O)CC2(C)c3cc(C=O)ccc3N(C)C12 (stereo not given)
TGI [1]: > 100 µM | TGI [2]: > 100 µM | TGI [3]: > 100 µM | TGI [4]: > 100 µM | TGI [5]: > 100 µM | TGI [6]: > 100 µM | TGI [7]: > 100 µM | TGI [8]: > 100 µM | TGI [9]: > 100 µM

COc1cc2c(c(OC)c1OC)-c1ccc(SC)c(=O)cc1[C@@H](NC(=O)c1ccc(F)cc1)CC2
TGI [1]: > 100 µM | GI50 [2]: < 10 nM | TGI [2]: 39.9 µM | GI50 [3]: < 0.01 µM | TGI [3]: < 0.01 µM | GI50 [5]: < 0.01 µM | TGI [5]: 0.0378 µM and < 0.01 µM | TGI [6]: > 100 µM | GI50 [7]: 0.0287 µM and < 0.01 µM | GI50 [8]: < 0.01 µM | TGI [8]: < 0.01 µM | GI50 [9]: < 0.01 µM | TGI [9]: > 100 µM

BrC(Br)([P+](c1ccccc1)(c1ccccc1)c1ccccc1)[P+](c1ccccc1)(c1ccccc1)c1ccccc1
TGI [2]: > 100 µM | TGI [3]: 34 µM | TGI [4]: > 100 µM | TGI [5]: 28.7 µM | TGI [6]: 50 µM | TGI [8]: 53.3 µM | TGI [9]: 29.6 µM

N#CC1=C(N)NC(=S)C(C#N)C12Nc1ccccc1S2 (stereo not given)
GI50 [2]: 17600 nM | TGI [2]: 72.4 µM | GI50 [3]: 13.4 µM | TGI [3]: 33.2 µM | GI50 [4]: 16.7 µM | TGI [4]: > 100 µM | GI50 [5]: 12.6 µM | TGI [5]: 40.1 µM | GI50 [6]: 24.3 µM | TGI [6]: 56.7 µM | GI50 [7]: 25.8 µM | TGI [7]: > 100 µM | GI50 [8]: 28.1 µM | TGI [8]: 73 µM | GI50 [9]: 19.1 µM | TGI [9]: 42.3 µM

Cc1ccc(N2C(=O)/C(=C3\Sc4c(nc(C)n(C)c4=O)N3c3ccccc3)SC2=S)cc1
TGI [1]: > 100 µM | TGI [3]: > 100 µM | TGI [4]: 44 µM | TGI [6]: > 100 µM | TGI [7]: > 100 µM | TGI [8]: 79.4 µM | TGI [9]: > 100 µM

CC(=O)[O-].O=[N+]([O-])c1ccc([O-])c(C=NCCN=Cc2cc([N+](=O)[O-])ccc2[O-])c1.[Mn+3]
GI50 [1]: 33.4 µM | TGI [1]: > 100 µM | GI50 [3]: > 100 µM | TGI [3]: > 100 µM | GI50 [4]: > 100 µM | TGI [4]: > 100 µM | GI50 [5]: 63 µM | TGI [5]: > 100 µM | GI50 [6]: > 100 µM | TGI [6]: > 100 µM | GI50 [7]: > 100 µM | TGI [7]: > 100 µM | GI50 [8]: > 100 µM | TGI [8]: > 100 µM

CC12O[Te]34OC1(C)C(C)(O3)C2(C)O4
TGI [2]: 36.8 µM | TGI [3]: 34.8 µM | TGI [4]: 61.3 µM | TGI [5]: 30.4 µM | TGI [6]: 23.3 µM | TGI [7]: 37.5 µM | TGI [8]: > 8.75 µM | TGI [9]: 32.6 µM

Nc1nc(Cl)cc(NCCCCCCNc2cc(Cl)nc(N)n2)n1
TGI [1]: > 100 µM | TGI [2]: > 100 µM | TGI [3]: > 100 µM | TGI [4]: > 100 µM | TGI [5]: > 100 µM | TGI [7]: > 100 µM | TGI [8]: > 100 µM | TGI [9]: > 100 µM

O=C1OC(c2ccc(Cl)c3ccccc23)c2ccccc21 (stereo not given)
TGI [1]: > 100 µM | TGI [2]: > 100 µM | TGI [3]: > 100 µM | TGI [4]: > 100 µM | TGI [6]: > 100 µM | TGI [7]: > 100 µM | TGI [8]: 51.1 µM
